Here are results for 25 compounds from US9540391B2, “Isomannide derivatives as inhibitors of soluble epoxide hydrolase” (SANOFI, priority 2013, dated 2017).

pIC50: −log10 of the molar value. Counter-ions that a name gives are not always drawn.

This test addresses T1, recombinant sEH (Homo sapiens, UniProt P34913).
T1 construct: made in house; host or cells: Sf9 insect cells
T1 sequence (P34913 1-555): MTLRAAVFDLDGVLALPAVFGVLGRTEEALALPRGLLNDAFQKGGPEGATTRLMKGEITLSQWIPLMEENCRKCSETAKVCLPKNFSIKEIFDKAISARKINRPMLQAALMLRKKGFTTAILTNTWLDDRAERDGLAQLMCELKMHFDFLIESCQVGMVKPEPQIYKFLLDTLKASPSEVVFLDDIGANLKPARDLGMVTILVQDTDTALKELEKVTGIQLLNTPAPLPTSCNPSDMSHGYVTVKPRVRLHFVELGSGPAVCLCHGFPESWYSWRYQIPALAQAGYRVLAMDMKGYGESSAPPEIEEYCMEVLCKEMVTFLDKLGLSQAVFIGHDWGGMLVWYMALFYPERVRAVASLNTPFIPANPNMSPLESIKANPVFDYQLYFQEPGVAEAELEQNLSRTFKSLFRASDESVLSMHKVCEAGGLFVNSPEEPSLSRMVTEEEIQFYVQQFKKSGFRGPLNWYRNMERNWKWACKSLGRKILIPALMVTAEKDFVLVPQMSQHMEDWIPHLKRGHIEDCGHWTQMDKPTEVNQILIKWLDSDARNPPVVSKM
Description: biochemical screening assay for inhibition of soluble epoxide hydrolase (fluorometric, Phome substrate). The method in brief: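 Reading fluorescence before substrate addition and after completion corrected for autofluorescence. Reaction: 5 μM Phome, 2 nM recombinant human sEH (Sf9-expressed), compound 0.0001–10 μM, 25 mM Hepes with 0.01% albumin, 15 min pre-incubation then 60 min at 30 °C; IC50 derived from % inhibition.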

The pIC50 is the negative decadic logarithm of the IC50, by convention in mol/L. For `Cc1cc(C)cc(NC(=O)NC2COC3C(C=Cc4ccsc4)COC23)c1` [Example 336, 1-(3,5-Dimethyl-phenyl)-3-[(3S,3aR,6S,-6aR)-6-((Z)-2-thiophen-3-yl-vinyl)-hexahydro-furo[3,2-b]furan-3-yl]-urea], the pIC50 is 7.33.

Turning to `O=C(Nc1ccccc1)N[C@H]1CO[C@H]2[C@@H]1OC[C@@H]2/C=C\c1ccsc1` [Example 337, 1-Phenyl-3-[(3S,3aR,6S,6aR)-6-((Z)-2-thiophen-3-yl-vinyl)-hexahydro-furo[3,2-b]furan-3-yl]-urea], the pIC50 was 6.37.

`O=C(NCc1ccc(F)cc1)N[C@H]1CO[C@H]2[C@@H]1OC[C@@H]2/C=C\c1ccsc1` [Example 338, 1-(4-Fluoro-benzyl)-3-[(3S,3aR,6S,6aR)-6-((Z)-2-thiophen-3-yl-vinyl)-hexahydro-furo[3,2-b]furan-3-yl]-urea]: the pIC50 was 6.41.

Consider `Cc1cccc(CNC(=O)N[C@H]2CO[C@H]3[C@@H]2OC[C@@H]3/C=C\c2ccsc2)c1` [Example 339, 1-(3-Methyl-benzyl)-3-[(3S,3aR,6S,6aR)-6-((Z)-2-thiophen-3-yl-vinyl)-hexahydro-furo[3,2-b]furan-3-yl]-urea], for which the pIC50 was 6.38.

For the compound `O=C(Nc1ccc(F)cc1)N[C@H]1CO[C@H]2[C@@H]1OC[C@@H]2/C=C\c1ccsc1` [Example 340, 1-(4-Fluoro-phenyl)-3-[(3S,3aR,6S,6aR)-6-((Z)-2-thiophen-3-yl-vinyl)-hexahydro-furo[3,2-b]furan-3-yl]-urea], the negative logarithm of the IC50 (pIC50) is 7.05.

`O=C(Nc1ccc2c(c1)CCC2)N[C@H]1CO[C@H]2[C@@H]1OC[C@@H]2/C=C\c1ccsc1` [Example 341, 1-Indan-5-yl-3-[(3S,3aR,6S,6aR)-6-((Z)-2-thiophen-3-yl-vinyl)-hexa-hydro-furo[3,2-b]furan-3-yl]-urea]: the pIC50 was 7.05.

As for `O=C(Nc1ccc(C(F)(F)F)cc1)NC1COC2C(C=Cc3ccsc3)COC12` [Example 342, 1-[(3S,3aR,6S,6aR)-6-((Z)-2-Thio-phen-3-yl-vinyl)-hexahydro-furo[3,2-b]furan-3-yl]-3-(4-trifluoromethyl-phenyl)-urea], the pIC50 was 7.77.

As to `COC(=O)c1cccc(NC(=O)N[C@H]2CO[C@H]3[C@@H]2OC[C@@H]3/C=C\c2ccsc2)c1` [Example 343, 3-{3-[(3S,3aR,6S,6aR)-6-((Z)-2-Thiophen-3-yl-vinyl)-hexahydro-furo[3,2-b]furan-3-yl]-ureido}-benzoic acid methyl ester], the pIC50 is 6.99.

`O=C(NCCc1ccccc1)N[C@H]1CO[C@H]2[C@@H]1OC[C@@H]2/C=C\c1ccsc1` [Example 344, 1-Phenethyl-3-[(3S,3aR,6S,6aR)-6-((Z)-2-thiophen-3-yl-vinyl)-hexa-hydro-furo[3,2-b]furan-3-yl]-urea]: the pIC50 is 7.38.

As for `O=C(Nc1ccc(OC(F)(F)F)cc1)N[C@H]1CO[C@H]2[C@@H]1OC[C@@H]2/C=C\c1ccsc1` [Example 345, 1-[(3S,3aR,6S,6aR)-6-((Z)-2-Thiophen-3-yl-vinyl)-hexahydro-furo[3,2-b]furan-3-yl]-3-(4-trifluoromethoxy-phenyl)-urea], the pIC50 was 7.96.

`O=C(Nc1cccc(C(F)(F)F)c1)N[C@H]1CO[C@H]2[C@@H]1OC[C@@H]2/C=C\c1ccsc1` [Example 346, 1-[(3S,3aR,6S,6aR)-6-((Z)-2-Thiophen-3-yl-vinyl)-hexahydro-furo[3,2-b]furan-3-yl]-3-(3-trifluoromethyl-phenyl)-urea]: the pIC50 was 7.21.

Take `O=C(NC1CCCCC1)N[C@H]1CO[C@@H]2[C@@H](CCc3ccc4c(c3)OCO4)CO[C@@H]21` [Example 347, 1-[(3S,3aR,6S,6aR)-6-(2-benzo[1,3]dioxol-5-yl-ethyl)-hexahydro-furo[3,2-b]furan-3-yl]-3-cyclohexyl-urea]: the pIC50 was 6.89.

In the case of `O=C(Nc1ccc2c(c1)OCO2)NC1COC2C(CCc3ccccc3)COC12` [Example 348, 1-Benzo[1,3]dioxol-5-yl-3-((3S,3aR,6S,-6aR)-6-phenethyl-hexahydro-furo[3,2-b]furan-3-yl)-urea], the pIC50 was 6.64.

With `O=C(NC1CCCCC1)N[C@H]1CO[C@@H]2[C@@H](CCc3ccccc3)CO[C@@H]21` [Example 349, 1-Cyclohexyl-3-((3S,3aR,6S,6aR)-6-phenethyl-hexahydro-furo[3,2-b]furan-3-yl)-urea], the pIC50 is 7.43.

For `O=C(NC1CCCCC1)N[C@H]1CO[C@@H]2[C@@H](CCc3ccccn3)CO[C@@H]21` [Example 350, 1-Cyclohexyl-3-[(3S,3aR,6S,6aR)-6-(2-pyridin-2-yl-ethyl)-hexahydro-furo[3,2-b]furan-3-yl]-urea; trifluoroacetate], the pIC50 was 7.66.

As for `CCCCOc1ccc(NC(=O)NC2COC3C(CCc4ccccc4)COC23)cc1` [Example 351, 1-(4-Butoxy-phenyl)-3-[(3S,3aR,6R)-6-((S)-phenethyl)-hexahydro-furo[3,2-b]furan-3-yl]-urea], the pIC50 was 6.79.

Regarding `COc1cc(NC(=O)N[C@H]2CO[C@H]3[C@H](CCc4ccccc4)CO[C@@H]32)cc(OC)c1` [Example 352, 1-(3,5-Dimethoxy-phenyl)-3-[(3S,3aR,6R)-6-((S)-phenethyl)-hexa-hydro-furo[3,2-b]furan-3-yl]-urea], the pIC50 was 6.83.

As for `Cc1cc(C)cc(NC(=O)N[C@H]2CO[C@H]3[C@H](CCc4ccccc4)CO[C@@H]32)c1` [Example 353, 1-(3,5-Dimethyl-phenyl)-3-[(3S,3aR,6R)-6-((S)-phenethyl)-hexa-hydro-furo[3,2-b]furan-3-yl]-urea], the negative-log IC50 (pIC50) is 7.77.

For the compound `O=C(Nc1ccccc1)NC1COC2C(CCc3ccccc3)COC12` [Example 354, 1-[(3S,3aR,6R)-6-((S)-Phenethyl)-hexa-hydro-furo[3,2-b]furan-3-yl]-3-phenyl-urea], the pIC50 was 6.90.

`O=C(Nc1ccc(OCc2ccccc2)cc1)NC1COC2C(CCc3ccccc3)COC12` [Example 355, 1-(4-Benzyloxy-phenyl)-3-[(3S,3aR,6R)-6-((S)-phenethyl)-hexahydro-furo[3,2-b]furan-3-yl]-urea]: the pIC50 was 7.10.

`O=C(NCc1ccc(F)cc1)NC1COC2C(CCc3ccccc3)COC12` [Example 356, 1-(4-Fluoro-benzyl)-3-[(3S,3aR,6R)-6-((S)-phenethyl)-hexahydro-furo[3,2-b]furan-3-yl]-urea]: the pIC50 was 6.85.

For the compound `Cc1cccc(NC(=O)NC2COC3C(CCc4ccccc4)COC23)c1` [Example 357, 1-[(3S,3aR,6R)-6-((S)-Phenethyl)-hexahydro-furo[3,2-b]furan-3-yl]-3-m-tolyl-urea], the pIC50 was 7.08.

For `O=C(Nc1ccc(Cl)c(Cl)c1)NC1COC2C(CCc3ccccc3)COC12` [Example 358, 1-(3,4-Dichloro-phenyl)-3-[(3S,3aR,6R)-6-((S)-phenethyl)-hexahydro-furo[3,2-b]furan-3-yl]-urea], the pIC50 was 7.66.

On to `Cc1cccc(CNC(=O)NC2COC3C(CCc4ccccc4)COC23)c1` [Example 359, 1-(3-Methyl-benzyl)-3-[(3S,3aR,6R)-6-((S)-phenethyl)-hexahydro-furo[3,2-b]furan-3-yl]-urea], for which the pIC50 was 6.95.

Take `O=C(Nc1ccc(F)cc1)NC1COC2C(CCc3ccccc3)COC12` [Example 360, 1-(4-Fluoro-phenyl)-3-[(3S,3aR,6R)-6-((S)-phenethyl)-hexahydro-furo[3,2-b]furan-3-yl]-urea]: the pIC50 is 7.09.
